The structures appear in SMILES notation.

Assay [1] has as its system A. actinomycetecomitans conditioned medium (A.a C.M.). The experiment in a line: Fluorescence reaction in A. actinomycetecomitans conditioned medium. To be noted: compared to the basic TSB media. From the text: (§1) Specifically, P. gingivalis is known to secrete gingipain (Kgp, Rgp) and outer membrane vesicles (OMVs) (FIG. 1A). Causative bacteria of periodontitis, i.e., P. gingivalis, F. nucleatum, and A. actinomycetecomitans, were observed using a scanning electron microscope (SEM) (FIG. 1B). Afterward, the conditioned media (C.M.) were isolated (FIG. 1C).
(§2) Therefore, the present inventors screened 24 types of thiol-reactive fluorescent compound libraries using the conditioned media. Here, four types of thiol-reactive MitoTrackers were used as control materials.
(§3) After culturing living P. gingivalis, F. nucleatum, and A. actinomycetecomitans with the fluorescent compound DTC630, and MitoTracker™ Red, cell-specific fluorescence reactions were compared.

Assay [2] has as its target Rgp (Porphyromonas gingivalis, UniProt P28784). Briefly: Fluorescence spectrum after culture with Rgp. The format is binding, P. gingivalis. To be noted: 10 μM, λex=425 nm; for detection of Rgp (fluorescence compared to PBS), in words: λem=450-700 nm. On the procedure: (§4) Specifically, after the gingipains (Kgp and Rgp) secreted from P. gingivalis, calpain, which is a cysteine protease, and trypsin, which is a serine protease, were cultured with fluorescent compound DTC630 (10 μM), a fluorescence spectrum was measured (λex=425 nm, λem=450-700 nm).
(§5) In addition, the degree of fluorescence reaction of fluorescent compound DTC630 (1, 3, 10, 30, and 100 μM) was measured at each concentration for Kgp, Rgp, calpain, and trypsin (final concentration: 0.3 mg/mL).

Assay [3] relates to trypsin. The experiment in a line: Fluorescence spectrum after culture with trypsin. The format is binding, human. The note with it: 10 μM, λex=425 nm; for detection of trypsin (fluorescence compared to PBS), in words: λem=450-700 nm. How it is done:
as §4, §5

Assay [4] deals with F. nucleatum conditioned medium (F.n. C.M.). The experiment in a line: Fluorescence reaction in F. nucleatum conditioned medium. The note with it: compared to the basic TSB media.
Description: as §1, §2, §3

For assay [5], the system named is P. gingivalis conditioned medium (P.g. C.M.). Also on record: species or system Porphyromonas gingivalis. To be noted: for increase in fluorescence in the P. gingivalis conditioned medium (P.g. C.M.): compared to the basic TSB media.
Description: as §1, §2, §3

The subject of assay [6] is calpain. Briefly: Fluorescence spectrum after culture with calpain. It counts as binding, human. The note with it: 10 μM, λex=425 nm; for detection of calpain (fluorescence compared to PBS), in words: λem=450-700 nm. How it is done:
as §4, §5

For assay [7], the system named is Kgp. The experiment in a line: Fluorescence spectrum after culture with Kgp. It counts as binding, P. gingivalis. The note with it: 10 μM, λex=425 nm; for detection of Kgp (fluorescence compared to PBS), in words: λem=450-700 nm. On the procedure: as §4, §5

Chain of Rgp (P28784 228-991): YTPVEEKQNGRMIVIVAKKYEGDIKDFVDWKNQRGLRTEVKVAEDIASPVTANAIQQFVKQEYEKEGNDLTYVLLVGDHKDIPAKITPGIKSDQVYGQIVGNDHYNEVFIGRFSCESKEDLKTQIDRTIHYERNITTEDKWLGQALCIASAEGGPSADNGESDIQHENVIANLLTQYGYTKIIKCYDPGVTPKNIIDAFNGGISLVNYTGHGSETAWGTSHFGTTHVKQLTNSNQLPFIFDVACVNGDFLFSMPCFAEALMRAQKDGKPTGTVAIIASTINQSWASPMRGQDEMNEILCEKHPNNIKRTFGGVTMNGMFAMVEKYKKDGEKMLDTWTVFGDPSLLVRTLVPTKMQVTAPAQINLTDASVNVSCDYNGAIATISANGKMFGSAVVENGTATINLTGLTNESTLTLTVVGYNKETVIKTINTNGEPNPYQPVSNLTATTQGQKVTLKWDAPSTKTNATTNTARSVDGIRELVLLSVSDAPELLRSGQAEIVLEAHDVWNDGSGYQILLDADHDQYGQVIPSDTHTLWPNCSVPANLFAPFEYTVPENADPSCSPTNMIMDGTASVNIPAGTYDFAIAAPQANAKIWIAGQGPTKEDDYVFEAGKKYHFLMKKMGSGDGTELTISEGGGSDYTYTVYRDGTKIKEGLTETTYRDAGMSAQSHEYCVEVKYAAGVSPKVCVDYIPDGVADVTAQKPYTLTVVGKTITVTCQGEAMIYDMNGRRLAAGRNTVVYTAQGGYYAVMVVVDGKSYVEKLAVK

For `ClCc1ccc(C2=c3cc4c5c(c3Oc3c2cc2c6c3CCCN6CCC2)CCC[N+]=5CCC4)cc1.[Cl-]` [MitoTracker™ Red], in assay [1], the “increase in fluorescence in the A. actinomycetecomitans conditioned medium (A.a C.M.)” value turned out to be 4.5±0.1 fold. In assay [2], the “fluorescence increase for Rgp compared to PBS” value turned out to be 126±6 fold and the “detection of Rgp (fluorescence compared to PBS), in words” value was “increase in fluorescence”. Moreover, in assay [3], the “fluorescence increase for trypsin compared to PBS” value amounted to 93±9 fold and the “detection of trypsin (fluorescence compared to PBS), in words” value is on record as “increase in fluorescence”. In addition, the “increase in fluorescence in the F. nucleatum conditioned medium (F.n. C.M.)” value in assay [4] is 3.2±0.1 fold. The “increase in fluorescence in the P. gingivalis conditioned medium (P.g. C.M.)” value in assay [5] was 5.6±0.6 fold. For the same compound, in assay [6], the “fluorescence increase for calpain compared to PBS” value is given as 163±1 fold and the “detection of calpain (fluorescence compared to PBS), in words” value is “increase in fluorescence”. Also, in assay [7], the “fluorescence increase for Kgp compared to PBS” value is 145±5 fold and the “detection of Kgp (fluorescence compared to PBS), in words” value was “increase in fluorescence”.

Regarding `CN(C)c1ccc(-c2ccc(/C=C(\C#N)c3nnn[nH]3)cc2)cc1` [DTC630, (E)-3-(4′-(dimethylamino)-[1,1′-biphenyl]-4-yl)-2-(1H-tetrazol-5-yl) acrylonitrile], in assay [1], the “increase in fluorescence in the A. actinomycetecomitans conditioned medium (A.a C.M.)” value came to 1.5±0.1 fold. Moreover, the “increase in fluorescence in the F. nucleatum conditioned medium (F.n. C.M.)” value in assay [4] was found to be 1.6±0.1 fold. Moreover, the “increase in fluorescence in the P. gingivalis conditioned medium (P.g. C.M.)” value in assay [5] turned out to be 6.2±0.2 fold.

`CN(C)c1ccc(-c2ccc(C=C(C#N)C#N)cc2)cc1` [DTC2352, 2-((4′-(dimethylamino)-[1,1′-biphenyl]-4-yl)methylene)malononitrile]: the “detection of Rgp (fluorescence compared to PBS), in words” value in assay [2] is “no increase in fluorescence”. Moreover, in assay [3], the “detection of trypsin (fluorescence compared to PBS), in words” value is given as “no increase in fluorescence”. Besides, the “selectivity of fluorescence reaction for P. gingivalis conditioned medium (library screen heatmap)” value in assay [5] (fluorescence magnification for TSB medium, screen of 24 thiol-reactive fluorescent compounds) is “does not exhibit a P. gingivalis-selective fluorescence reaction”. For the same compound, in assay [6], the “detection of calpain (fluorescence compared to PBS), in words” value is “no increase in fluorescence”. Moreover, in assay [7], the “fluorescence increase for Kgp compared to PBS” value turned out to be 3±0 fold and the “detection of Kgp (fluorescence compared to PBS), in words” value is listed as “no increase in fluorescence”.

These data come from patent publication US20260219277A1, “NOVEL FLUORESCENT COMPOUND, AND COMPOSITION FOR DETECTING GINGIPAIN, COMPOSITION FOR DIAGNOSING PORPHYROMONAS GINGIVALIS INFECTION, OR ANTIBACTERIAL COMPOSITION AGAINST PORPHYROMONAS GINGIVALIS USING SAME” (priority 2023, published 2026).
